Columns and labels:
hIL-6 mRNA = assay: Inhibition of hIL-6 mRNA transcription in LPS-stimulated U937 cells; format: cell-based; details: Homo sapiens, U-937; PMA-differentiated U937 cells, 1 h pretreatment, 1 ug/mL LPS stimulation, 3 h; read-out: IL-6 activity (Inhibition of hIL-6 mRNA Transcription)
Outline: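 U937 cells differentiated 3 days with 60 ng/mL PMA, pretreated 1 h with compound (0.1% DMSO), then stimulated with 1 ug/mL E. coli LPS for 3 h at 37 °C. hIL-6 mRNA measured by one-step TaqMan RT-qPCR, normalized to cyclophilin. Fold expression relative to control; triplicate wells.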

hIL-17 mRNA = assay: Inhibition of hIL-17 mRNA transcription in OKT3-stimulated peripheral blood mononuclear cells; format: cell-based; details: PBMC, human peripheral blood mononuclear cells, OKT3 antibody, 6 h, read-out: IL-17 activity
Procedure: In this example, hIL-17 mRNA in human peripheral blood mononuclear cells was quantitated to measure the transcriptional inhibition of hIL-17 when treated with a compound of the invention.
Human peripheral blood mononuclear cells were plated (2.0×10^5 cells per well) in a 96-well plate in 45 μL OpTimizer T Cell expansion media containing 20 ng/ml IL-2 and penicillin/streptomycin. The cells were treated with the test compound (45 μL at 2× concentration), and then the cells were incubated at 37° C. for 1 h before addition of 10× stock OKT3 antibody at 10 μg/ml in media. Cells were incubated at 37° C. for 6 h before the cells were harvested. At time of harvest, cells were centrifuged (800 rpm, 5 min). Spent media was removed and cell lysis solution (70 μL) was added to the cells in each well and incubated for 5-10 min at room temperature, to allow for complete cell lysis and detachment. mRNA was then prepared using the “mRNA Catcher PLUS plate” (Invitrogen), according to the protocol supplied. After the last wash, as much wash buffer as possible was aspirated without allowing the wells to dry. Elution buffer (E3, 70 μL) was then added to each well. mRNA was then eluted by incubating the mRNA Catcher PLUS plate with Elution Buffer for 5 min at 68° C. and then immediately placing the plate on ice.
The eluted mRNA isolated was then used in a one-step quantitative RT-PCR reaction, using components of the Ultra Sense Kit together with Applied Biosystems primer-probe mixes. Real-time PCR data was analyzed, normalizing the Ct values for hIL-17 to an internal control, prior to determining the fold induction of each unknown sample, relative to the control.

[1] = target: T1, Brd4 bromodomain 1 (BRD4(1)) (Homo sapiens, UniProt O60885); assay: Inhibition of tetra-acetylated histone H4 binding to Brd4 bromodomain 1 (TR-FRET); details: tetra-acetylated histone H4 peptide, first bromodomain of Brd4
T1 construct: made in house; host or cells: E. coli BL21(DE3)
Outline: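 His-tagged BRD4(1) from E. coli (200 nM) with biotinylated tetra-acetylated H4 peptide (25-50 nM), Eu-cryptate streptavidin and XL665 anti-His, in HEPES pH 7.4/phosphate/KF buffer, 0.2% DMSO. After 2 h at room temperature, TR-FRET 665/620 nm ratio read; IC50 from dose-response curves.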

human AML MV-4-11 cells = assay: Inhibition of cell proliferation in MV4-11 cells (CellTiter Aqueous One); format: cell-based; details: MV4-11, 72 h
Outline: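 Exponentially growing MV-4-11 cells (5×10^4/well) were treated immediately with two-fold dilutions of compound from 30 μM to 0.2 μM, in triplicate, for 72 h at 37° C, 5% CO2. Viability was measured by MTS absorbance at 490 nm after 3–4 h. Proliferation relative to DMSO after blank correction gave IC50.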

c-myc = assay: Inhibition of c-myc expression (mRNA, real-time PCR) in MV4-11 cells; format: cell-based; details: Human AML MV4-11 cells, 3 h, cMYC mRNA
Outline: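 MV4-11 cells treated 3 h at 37° C with increasing compound concentrations or 0.1% DMSO, in triplicate. cMYC mRNA quantified by one-step TaqMan real-time PCR, Ct normalized to internal control (Cyclophilin primers used), fold expression relative to control.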

IC50 (hIL-6 mRNA) [nM]	IC50 (hIL-17 mRNA) [nM]	IC50 [1] [nM]	IC50 (human AML MV-4-11 cells) [nM]	IC50 (c-myc) [nM]	Structure (SMILES)
300 to 3000	≤ 300	≤ 300	300 to 3000	≤ 300	Cc1noc(C)c1-c1cnc2[nH]c(=O)n(C(C)c3ccccc3)c2c1 (stereo not shown) [compound 112, 6-(3,5-dimethylisoxazol-4-yl)-1-(1-phenylethyl)-1H-imidazo[4,5-b]pyridin-2(3H)-one]
300 to 3000	300 to 3000	≤ 300	300 to 3000	300 to 3000	Cc1noc(C)c1-c1cnc2[nH]c(=O)n(Cc3cccs3)c2c1 [compound 106, 6-(3,5-dimethylisoxazol-4-yl)-1-(thiophen-2-ylmethyl)-1H-imidazo[4,5-b]pyridin-2(3H)-one]
300 to 3000	300 to 3000	≤ 300	300 to 3000	300 to 3000	Cc1noc(C)c1-c1cnc2ncn(Cc3ccc(F)cc3)c2c1 [Example Compound 45, 4-(1-(4-fluorobenzyl)-1H-imidazo[4,5-b]pyridin-6-yl)-3,5-dimethylisoxazole]
≤ 300	300 to 3000	≤ 300	300 to 3000	300 to 3000	Cc1noc(C)c1-c1cnc2nc(C)n(Cc3ccccc3)c2c1 [Example Compound 13, 4-(1-benzyl-2-methyl-1H-imidazo[4,5-b]pyridin-6-yl)-3,5-dimethylisoxazole]
≤ 300	300 to 3000	≤ 300	≤ 300	≤ 300	Cc1noc(C)c1-c1cc(N)c2[nH]c(=O)n(Cc3ccccc3)c2c1 [Example Compound 16, 4-amino-1-benzyl-6-(3,5-dimethylisoxazol-4-yl)-1H-benzo[d]imidazol-2(3H)-one]

— patent US10363257B2 (ZENITH EPIGENETICS LTD., priority 2013, dated 2019)
